In patent US10570179B2, “Substituted urea depsipeptide analogs as activators of the CLPP endopeptidase” (priority 2016, dated 2020):
≈ marks a conversion by molar mass, not a printed value. Read-outs that look alike come from different tables or passages of the source. Numbered stars: 1 amine (or outer) side, 2 acyl side, 3 side chain; on linkers, the order of the positions; unused ones are H or OH. Bridge positions count the residues as written; N and C are the ends. Square brackets hold non-standard residues; d marks the D form. Peptide text beside a SMILES is read from it. * marks the point of attachment. Phe(3,5-F2) = N[C@@H](Cc1cc(F)cc(F)c1)C(=O)O; Phe(3,5-Me2) = Cc1cc(C)cc(C[C@H](N)C(=O)O)c1; NH(1-Me-indolin-5-yl) = CN1CCc2cc(N*)ccc21; Morpholine(3S-CO) = O=C(O)[C@@H]1COCCN1; Phe(3-Me) = Cc1cccc(C[C@H](N)C(=O)O)c1; NH(4-Cl-2-F-phenyl) = Fc1cc(Cl)ccc1N*; Pro(4R-Me) = C[C@H]1CN[C@H](C(=O)O)C1; NH(4-Me-phenyl) = Cc1ccc(N*)cc1; aThr = C[C@H](O)[C@H](N)C(=O)O; Pip = O=C(O)[C@@H]1CCCCN1; CO = O=C([*:1])[*:2]

Legend:
[1] = Microsomal metabolic stability; type: in vitro ADME, mouse
How it was run: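 CD-1 mouse liver microsomes (0.6381 mg/mL protein microsomal solution, 0.1 M potassium phosphate pH 7.4 with EDTA) were incubated with compound and an NADPH-regenerating system at 37 °C, in triplicate. Acetonitrile/warfarin quench at 0, 15, 30, 60, 120 and 240 min, then LCMS. Half-life came from a first-order least-squares fit.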

[2] = Plasma protein binding, rapid equilibrium dialysis; type: in vitro ADME, human; details: 10 μM
How it was run: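 Compound spiked at 10 μM (0.1% DMSO) into human plasma, dialysed against DPBS pH 7.4 across 8 K MWCO RED membrane for 4 h at 37 °C with shaking. Both chambers quantified by LC-MS against warfarin internal standard; % free = buffer/plasma concentration ×100, % bound = 100 − % free.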

E. faecails = test: Minimal inhibitory concentration, microbroth dilution; type: cell-based; details: Enterococcus faecalis
How it was run: (§1)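 MIC is recorded by eye as the lowest drug concentration that stops bacterial growth. Compound is serially diluted twofold in broth, starting at 200 μM final, and bacteria are added at roughly 10^5 cfu/mL. Incubation runs overnight at 37 °C under aerobic conditions, per CLSI guidance.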

S. aureus USA 300 = test: as above; type: cell-based; details: Staphylococcus aureus
How it was run: as §1

S. pneumoniae = test: as above; type: cell-based; details: Streptococcus pneumoniae, read-out: Minimal Inhibitory Concentrations (μM) S. pneumoniae
How it was run: as §1

MRSA NRS70 = test: as above; type: cell-based; details: Staphylococcus aureus
How it was run: as §1

B. subtilis = test: as above; type: cell-based; details: Bacillus subtilis, read-out: Minimal Inhibitory Concentrations (μM) B. subtilis
How it was run: as §1

S. pyogenes = test: as above; type: cell-based; details: Streptococcus pyogenes, read-out: Minimal Inhibitory Concentrations (μM) S. pyogenes
How it was run: as §1

[3] = microsomal metabolic stability half-life, mouse liver microsomes
[4] = plasma binding, % Bound, human plasma
[5] = read-out: Minimal Inhibitory Concentrations (μM) E. faecails, MIC
[6] = USA300, read-out: Minimal Inhibitory Concentrations (μM) S. aureus USA 300, MIC
[7] = read-out: Minimal Inhibitory Concentrations (μM) MRSA NRS70, MIC
[8] = MIC, read-out: Minimal Inhibitory Concentrations (μM) E. faecails
[9] = USA300, MIC, read-out: Minimal Inhibitory Concentrations (μM) S. aureus USA 300
[10] = MIC, read-out: Minimal Inhibitory Concentrations (μM) MRSA NRS70

With `C[C@@H]1C[C@H]2C(=O)O[C@@H](C)[C@H](NC(=O)[C@H](Cc3cc(F)cc(F)c3)NC(=O)Nc3ccc4c(c3)CCN4C)C(=O)N3CCC[C@H]3C(=O)N3CCOC[C@H]3C(=O)N[C@@H](C)C(=O)N2C1` [Compound 32] ({NH(1-Me-indolin-5-yl)-CO}-[Phe(3,5-F2)][aThr]P[Morpholine(3S-CO)]A[Pro(4R-Me)]; ester 2-C) as the compound, how does the “Mouse” value [1, 3] read?
Its value is 0.95 ± .95 h.

And the Human [2, 4]?
Its Human is 83.0 ± 3.0%.

What about the MIC (E. faecails; [5]) of the same compound?
The MIC was 0.039 µM (≈ 0.0332 µg/mL).

What about the MIC (S. aureus USA 300; [6]) of the same compound?
The MIC was 0.156 µM (≈ 0.133 µg/mL).

What about the MIC (S. pneumoniae) of the same compound?
The MIC was 0.078 µM (≈ 0.0664 µg/mL).

And the MIC (MRSA NRS70; [7])?
Its MIC is 0.078 µM (≈ 0.0664 µg/mL).

What about the MIC (B. subtilis) of the same compound?
Its MIC is 0.313 µM (≈ 0.266 µg/mL).

And the MIC (S. pyogenes)?
The MIC was 0.156 µM (≈ 0.133 µg/mL).

For `Cc1ccc(NC(=O)N[C@@H](Cc2cc(C)cc(C)c2)C(=O)N[C@@H]2C(=O)N3CCC[C@H]3C(=O)N3CCCC[C@H]3C(=O)N[C@@H](C)C(=O)N3C[C@H](C)C[C@H]3C(=O)O[C@H]2C)cc1` [Compound 2, (S)-3-(3,5-DIMETHYLPHENYL)-2-(3-(P-TOLYL)UREIDO)-N-((2R,6S,8AS,14AS,20S,21S,23AS)-2,6,21-TRIMETHYL-5,8,14,19,23-PENTAOXOOCTADECAHYDRO-1H,5H,14H,19H-PYRIDO[2,1-I]DIPYRROLO[2,1-C:2′,1′-L][1]OXA[4,7,10,13]TETRAAZACYCLOHEXADECIN-20-YL)PROPANAMIDE] ({NH(4-Me-phenyl)-CO}-[Phe(3,5-Me2)][aThr]P[Pip]A[Pro(4R-Me)]; ester 2-C), which “Mouse” value [1, 3] is on record?
Its value is 2.85 h.

And the Human [2, 4]?
Its Human is 99.3%.

What about the MIC (E. faecails; [5]) of the same compound?
Its MIC is 2.5 µM (≈ 2 µg/mL).

And the MIC (S. aureus USA 300; [6])?
The MIC was 0.781 µM (≈ 0.625 µg/mL).

And the MIC (MRSA NRS70; [7])?
Its MIC is 0.313 µM (≈ 0.25 µg/mL).

And the MIC (B. subtilis)?
Its MIC is 0.625 µM (≈ 0.5 µg/mL).

And the MIC (S. pyogenes)?
Its MIC is > 20 µM.

Which “Mouse” value ([1]; CD-1, mouse, pH 7.4) does the source give for `Cc1cccc(C[C@H](NC(=O)Nc2ccc(Cl)cc2F)C(=O)N[C@@H]2C(=O)N3CCC[C@H]3C(=O)N3CCCC[C@H]3C(=O)N[C@@H](C)C(=O)N3C[C@H](C)C[C@H]3C(=O)O[C@H]2C)c1` [Compound 3, (S)-2-(3-(4-CHLORO-2-FLUOROPHENYL)UREIDO)-3-(M-TOLYL)-N-((2R,6S,8AS,14AS,20S,21S,23AS)-2,6,21-TRIMETHYL-5,8,14,19,23-PENTAOXOOCTADECAHYDRO-1H,5H,14H,19H-PYRIDO[2,1-I]DIPYRROLO[2,1-C:2′,1′-L][1]OXA[4,7,10,13]TETRAAZACYCLOHEXADECIN-20-YL)PROPANAMIDE] ({NH(4-Cl-2-F-phenyl)-CO}-[Phe(3-Me)][aThr]P[Pip]A[Pro(4R-Me)]; ester 2-C) here?
Its value is 11.65 ± 2.2 h.

What about the Human ([2]; human, 4 h, pH 7.4) of the same compound?
Its Human is 99.0 ± 0.1%.

And the MIC (E. faecails; [8])?
The MIC was 0.078 µM (≈ 0.0643 µg/mL).

What about the MIC (S. aureus USA 300; [9]) of the same compound?
Its MIC is 0.156 µM (≈ 0.129 µg/mL).

And the MIC (MRSA NRS70; [10])?
Its MIC is 0.078 µM (≈ 0.0643 µg/mL).

And the MIC (B. subtilis; MIC)?
Its MIC is 0.078 µM (≈ 0.0643 µg/mL).

What about the MIC (S. pyogenes; MIC) of the same compound?
The MIC was 0.313 µM (≈ 0.258 µg/mL).

Which results are given for `Cc1cc(C)cc(C[C@H](NC(=O)Nc2ccc(Cl)cc2F)C(=O)N[C@@H]2C(=O)N3CCC[C@H]3C(=O)N3CCCC[C@H]3C(=O)N[C@@H](C)C(=O)N3C[C@H](C)C[C@H]3C(=O)O[C@H]2C)c1` [Compound 4, (S)-2-(3-(4-CHLORO-2-FLUOROPHENYL)UREIDO)-3-(3,5-DIMETHYLPHENYL)-N-((2R,6S,8AS,14AS,20S,21S,23AS)-2,6,21-TRIMETHYL-5,8,14,19,23-PENTAOXOOCTADECAHYDRO-1H,5H,14H,19H-PYRIDO[2,1-I]DIPYRROLO[2,1-C:2′,1′-L][1]OXA[4,7,10,13]TETRAAZACYCLOHEXADECIN-20-YL)PROPANAMIDE] ({NH(4-Cl-2-F-phenyl)-CO}-[Phe(3,5-Me2)][aThr]P[Pip]A[Pro(4R-Me)]; ester 2-C)?
Mouse ([1]; CD-1, mouse, pH 7.4): 6.99 ± 1.07 h; Human ([2]; human, 4 h, pH 7.4): 99.8 ± 0.2%; MIC (E. faecails; [8]): 1.25 µM (≈ 1.05 µg/mL); MIC (S. aureus USA 300; [9]): 0.625 µM (≈ 0.524 µg/mL); MIC (MRSA NRS70; [10]): 0.156 µM (≈ 0.131 µg/mL); MIC (B. subtilis; MIC): 1.25 µM (≈ 1.05 µg/mL); MIC (S. pyogenes; MIC): 1.25 µM (≈ 1.05 µg/mL)
